{
  "source": "paper PMC5727211",
  "about": "“Development of Erasin: a chromone-based STAT3 inhibitor which induces apoptosis in Erlotinib-resistant lung cancer cells” (Scientific Reports, 2017)",
  "key": {"STAT3 Glu594Ala mutant": {"biological_target": "STAT3 Glu594Ala mutant (Homo sapiens, UniProt P40763, E594A)", "sequence (P40763 whole entry E594A)": "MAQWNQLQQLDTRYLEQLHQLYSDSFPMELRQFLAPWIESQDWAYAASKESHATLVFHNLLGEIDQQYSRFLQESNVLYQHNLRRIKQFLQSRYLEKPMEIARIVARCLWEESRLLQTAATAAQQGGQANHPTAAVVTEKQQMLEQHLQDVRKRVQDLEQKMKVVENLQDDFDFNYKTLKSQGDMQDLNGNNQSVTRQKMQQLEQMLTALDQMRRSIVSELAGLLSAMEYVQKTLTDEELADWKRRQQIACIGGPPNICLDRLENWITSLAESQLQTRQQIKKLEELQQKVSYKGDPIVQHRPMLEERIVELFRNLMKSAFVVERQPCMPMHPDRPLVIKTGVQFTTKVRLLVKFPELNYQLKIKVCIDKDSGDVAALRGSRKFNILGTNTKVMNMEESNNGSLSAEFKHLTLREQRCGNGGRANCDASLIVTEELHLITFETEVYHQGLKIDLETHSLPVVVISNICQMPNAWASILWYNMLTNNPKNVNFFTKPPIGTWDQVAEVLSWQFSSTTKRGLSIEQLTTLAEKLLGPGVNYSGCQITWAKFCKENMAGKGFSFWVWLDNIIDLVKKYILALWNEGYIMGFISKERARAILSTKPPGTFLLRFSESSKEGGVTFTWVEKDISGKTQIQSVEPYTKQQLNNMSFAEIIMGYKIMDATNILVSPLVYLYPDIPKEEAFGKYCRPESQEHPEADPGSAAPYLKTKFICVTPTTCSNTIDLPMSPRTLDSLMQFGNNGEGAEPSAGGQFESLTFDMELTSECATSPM", "assay": "FP assay against STAT3 Glu594Ala mutant", "assay_type": "binding", "source_text": "The predicted (E)-trans-configuration of the acyl hydrazone moiety in the protein-bound state was also observed in the X-ray structure of crystals of 8 grown from ethyl acetate / hexane (Supplementary Fig. S4). Substantial conformational changes of the protein are required for ligand binding (Supplementary Fig. S3), a process which can account for the observed time-dependence of inhibition by 8 (Supplementary Fig. S5). […] Substitution of the pyridyl ring for electron-rich, five-membered heteroaromatic rings is tolerated (17–19). […] This behavior is consistent with hydrogen bonding between the molecules’ carbonyl group and the backbone amide of Gln635 as proposed by the docking studies (Fig. 2b), which is expected to suffer from electron-withdrawing substituents on the phenyl ring. Further evidence for hydrogen bonding arises from the inactivity of derivative 22, in which the carbonyl group has been deleted. Substitution of the carbonyl by a sulfonyl group (compound 23) is also not tolerated, indicating specific recognition of 8 by STAT3.\nThis reduction tails off, consistent with the idea that inhibition of STAT3 by 8 is a slow but reversible process. […]\neasily susceptible to covalent modification by nucleophiles. […] C) Activity of 8 in a fluorescence polarization assay against wild-type STAT3 or a STAT3 Glu594Ala mutant after 2 h incubation in the presence of 1 mM DTT. […]"}, "[1]": {"assay": "NMR-based stability analysis (hydrolysis of acyl hydrazone to aldehyde)", "assay_type": "physicochemical", "conditions": "deuterated phosphate buffer pD = 7.9 with DMSO-d6, 24 h", "protocol": "The formation of acyl hydrazones from aldehydes is a reversible reaction. […] The strongly divergent relative activities of the aldehydes 8a and 9a compared to the acyl hydrazones 8 and 9 imply that the activity of the acyl hydrazones is not a consequence of aldehyde formation.\nNa2DPO4 (C/D/N Isotopes, 8.5 mM) and NaD2PO4 (C/D/N Isotopes, 3.3 mM) were dissolved in D2O to give a total phosphate concentration of 11.8 mM. The measured pH of 7.5 corresponds to a pD of 7.91 according to the literature.\nThis reduction tails off, consistent with the idea that inhibition of STAT3 by 8 is a slow but reversible process. An alternative explanation for time-dependent inhibition would be covalent modification of the Michael acceptor of the chromones by the protein. While we cannot formally exclude this possibility, two observations argue against cysteine alkylation as the […]\ndouble bond of 8. B) Secondly, omission of the strong nucleophile dithiothreitol (DTT) from the assay […]\neasily susceptible to covalent modification by nucleophiles. Data after 2 h of incubation are shown. C) Activity of 8 in a fluorescence polarization assay against wild-type STAT3 or a STAT3 Glu594Ala mutant after 2 h incubation in the presence of 1 mM DTT. […]"}, "STAT5 phosphorylation": {"test_system": "STAT5 phosphorylation", "assay": "Western Blot, STAT5 tyrosine phosphorylation in K562 cells", "assay_type": "cell-based, human", "source_text": "An inhibitor of a STAT SH2 domain prevents phosphorylation of STATs at this conserved tyrosine residue, thereby inhibiting STAT-mediated signal transduction (Fig. 3a). Consistent with its activity in the FP assay, 8 inhibited interleukin (IL)-6-stimulated STAT3 Tyr705 phosphorylation in HepG2 cells in a dose-dependent manner (Fig. 3b). […] In contrast, tyrosine phosphorylation of STAT5 in K562 cells is not inhibited (Fig. 3d). The activity profile in cells thus reflects the selectivity profile seen in vitro (Fig. 2a, Table 1), supporting the notion that cellular activities are mediated by functional inhibition of the STAT SH2 domains.\nHepG2 cells were plated in 6-well plates (Corning #3516) and allowed to reach approximately 60% confluence. The medium was then replaced with serum-free medium for 24 h. […]\nLysates were separated on a polyacrylamide gel under denaturing conditions, and transferred to a nitrocellulose membrane. STAT phosphorylation was assessed using rabbit monoclonal antibodies against the phosphorylated forms only of STAT1, STAT3 or STAT5 (Cell Signaling, 1:1000) with secondary antibody swine anti-rabbit HRP from Dako, 1:3000), followed by reblotting with rabbit monoclonal antibodies against total STAT1, STAT3 or STAT5 (Cell Signaling), and subsequently β-actin loading control. […]"}},
  "note": "Entries after “also recorded” stand apart in the source; their conditions may differ.",
  "data": [
    {"smiles": "CC(C)(C)c1ccc2occ(/C=N/NC(=O)c3cccnc3)c(=O)c2c1", "note": "[Compound 8]", "values": [
      {"measurement": "activity against STAT3 Glu594Ala mutant compared to wild-type STAT3", "setting": "STAT3 Glu594Ala mutant", "result": "three-fold lower activity"},
      {"measurement": "IC50", "setting": "STAT3 Glu594Ala mutant; 2 h incubation, 1 mM DTT, read-out: app. IC50 against STAT3 Glu594Ala mutant", "result": "27 ± 1", "unit": "µM"},
      {"measurement": "hydrolysis to the aldehyde (1H-NMR)", "setting": "[1]", "result": "no sign of hydrolysis; also recorded: no sign of aldehyde release"},
      {"measurement": "tyrosine phosphorylation of STAT5", "setting": "STAT5 phosphorylation", "result": "not inhibited"}
    ]}
  ]
}
